9 molecules from patent EP4483954A1 (Masarykova Univerzita, priority 2023, dated 2025) can be followed below.

The IC50 is the concentration at which inhibition is half-maximal.

SMILES strings stand for the structures.

Format in all cases: biochemical
One test addresses T1, TAF1L(h) (Homo sapiens, UniProt Q8IZX4).
T1 construct: purchased Eurofins (KinaseProfiler)
The experiment in a line: radiometric kinase assay (KinaseProfiler, Eurofins), TAF1L. The note with it: in vitro radiometric kinase assay, tested at 1 nM to 10 000 nM, no pre-incubation; read-out: inhibitory activities (IC50 values) TAF1L.

The target of another test is T2, CDKL3(h) (Homo sapiens, UniProt Q8IVW4).
T2 construct: purchased Eurofins (KinaseProfiler)
Briefly: radiometric kinase assay (KinaseProfiler, Eurofins), CDKL3. The note with it: in vitro radiometric kinase assay, tested at 1 nM to 10 000 nM, no pre-incubation; read-out: inhibitory activities (IC50 values) CDKL3.

Another test concerns the target T3, TRB2(h) (Homo sapiens, UniProt Q92519).
T3 construct: purchased Eurofins (KinaseProfiler)
T3 sequence (Q92519 1-343): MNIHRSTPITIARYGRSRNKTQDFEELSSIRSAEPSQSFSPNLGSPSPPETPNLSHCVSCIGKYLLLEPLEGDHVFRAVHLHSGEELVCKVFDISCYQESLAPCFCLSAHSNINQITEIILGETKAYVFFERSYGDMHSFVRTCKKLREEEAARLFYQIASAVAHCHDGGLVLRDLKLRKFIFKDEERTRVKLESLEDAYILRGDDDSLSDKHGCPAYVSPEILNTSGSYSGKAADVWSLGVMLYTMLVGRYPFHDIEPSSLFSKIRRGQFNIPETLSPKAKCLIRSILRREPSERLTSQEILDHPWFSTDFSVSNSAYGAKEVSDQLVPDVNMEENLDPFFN
The experiment in a line: radiometric kinase assay (KinaseProfiler, Eurofins), TRB2. To be noted: in vitro radiometric kinase assay, tested at 1 nM to 10 000 nM, no pre-incubation; read-out: inhibitory activities (IC50 values) TRB2.

A further test concerns the target T4, CLK2 (h) (Homo sapiens, UniProt P49760).
T4 construct: purchased Eurofins (KinaseProfiler)
The experiment in a line: radiometric kinase assay (KinaseProfiler, Eurofins), CLK2. To be noted: in vitro radiometric kinase assay, tested at 1 nM to 10 000 nM, no pre-incubation; read-out: inhibitory activities (IC50 values) CLK2. The procedure, abridged: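 Radiometric filter-binding assay: human CLK2 in 8 mM MOPS pH 7.0 with 20 µM peptide substrate, 10 mM Mg acetate and γ-33P-ATP, no compound preincubation; 40 min at room temperature. Activity relative to DMSO over 1–10 000 nM compound; IC50 by curve fit.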

In the next test the target is T5, CDKL4(h) (Homo sapiens, UniProt Q5MAI5).
T5 construct: purchased Eurofins (KinaseProfiler)
The experiment in a line: radiometric kinase assay (KinaseProfiler, Eurofins), CDKL4. The note with it: in vitro radiometric kinase assay, tested at 1 nM to 10 000 nM, no pre-incubation; read-out: inhibitory activities (IC50 values) CDKL4.

T2 sequence (Q8IVW4 whole entry): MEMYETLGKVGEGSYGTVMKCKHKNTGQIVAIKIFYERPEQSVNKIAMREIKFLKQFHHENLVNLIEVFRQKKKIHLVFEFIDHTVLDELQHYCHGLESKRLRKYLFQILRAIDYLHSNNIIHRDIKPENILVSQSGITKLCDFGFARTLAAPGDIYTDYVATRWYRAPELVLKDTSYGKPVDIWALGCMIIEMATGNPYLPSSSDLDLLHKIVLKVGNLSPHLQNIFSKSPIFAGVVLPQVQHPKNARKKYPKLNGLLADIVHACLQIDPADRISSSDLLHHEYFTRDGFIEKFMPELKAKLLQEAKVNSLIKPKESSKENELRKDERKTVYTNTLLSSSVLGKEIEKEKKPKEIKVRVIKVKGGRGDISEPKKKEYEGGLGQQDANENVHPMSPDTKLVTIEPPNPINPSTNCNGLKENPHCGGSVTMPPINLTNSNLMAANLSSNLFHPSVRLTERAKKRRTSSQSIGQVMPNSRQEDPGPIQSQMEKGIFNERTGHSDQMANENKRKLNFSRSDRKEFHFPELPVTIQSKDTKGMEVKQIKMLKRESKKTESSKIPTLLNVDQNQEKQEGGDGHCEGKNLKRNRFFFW
T1 sequence (Q8IZX4 whole entry): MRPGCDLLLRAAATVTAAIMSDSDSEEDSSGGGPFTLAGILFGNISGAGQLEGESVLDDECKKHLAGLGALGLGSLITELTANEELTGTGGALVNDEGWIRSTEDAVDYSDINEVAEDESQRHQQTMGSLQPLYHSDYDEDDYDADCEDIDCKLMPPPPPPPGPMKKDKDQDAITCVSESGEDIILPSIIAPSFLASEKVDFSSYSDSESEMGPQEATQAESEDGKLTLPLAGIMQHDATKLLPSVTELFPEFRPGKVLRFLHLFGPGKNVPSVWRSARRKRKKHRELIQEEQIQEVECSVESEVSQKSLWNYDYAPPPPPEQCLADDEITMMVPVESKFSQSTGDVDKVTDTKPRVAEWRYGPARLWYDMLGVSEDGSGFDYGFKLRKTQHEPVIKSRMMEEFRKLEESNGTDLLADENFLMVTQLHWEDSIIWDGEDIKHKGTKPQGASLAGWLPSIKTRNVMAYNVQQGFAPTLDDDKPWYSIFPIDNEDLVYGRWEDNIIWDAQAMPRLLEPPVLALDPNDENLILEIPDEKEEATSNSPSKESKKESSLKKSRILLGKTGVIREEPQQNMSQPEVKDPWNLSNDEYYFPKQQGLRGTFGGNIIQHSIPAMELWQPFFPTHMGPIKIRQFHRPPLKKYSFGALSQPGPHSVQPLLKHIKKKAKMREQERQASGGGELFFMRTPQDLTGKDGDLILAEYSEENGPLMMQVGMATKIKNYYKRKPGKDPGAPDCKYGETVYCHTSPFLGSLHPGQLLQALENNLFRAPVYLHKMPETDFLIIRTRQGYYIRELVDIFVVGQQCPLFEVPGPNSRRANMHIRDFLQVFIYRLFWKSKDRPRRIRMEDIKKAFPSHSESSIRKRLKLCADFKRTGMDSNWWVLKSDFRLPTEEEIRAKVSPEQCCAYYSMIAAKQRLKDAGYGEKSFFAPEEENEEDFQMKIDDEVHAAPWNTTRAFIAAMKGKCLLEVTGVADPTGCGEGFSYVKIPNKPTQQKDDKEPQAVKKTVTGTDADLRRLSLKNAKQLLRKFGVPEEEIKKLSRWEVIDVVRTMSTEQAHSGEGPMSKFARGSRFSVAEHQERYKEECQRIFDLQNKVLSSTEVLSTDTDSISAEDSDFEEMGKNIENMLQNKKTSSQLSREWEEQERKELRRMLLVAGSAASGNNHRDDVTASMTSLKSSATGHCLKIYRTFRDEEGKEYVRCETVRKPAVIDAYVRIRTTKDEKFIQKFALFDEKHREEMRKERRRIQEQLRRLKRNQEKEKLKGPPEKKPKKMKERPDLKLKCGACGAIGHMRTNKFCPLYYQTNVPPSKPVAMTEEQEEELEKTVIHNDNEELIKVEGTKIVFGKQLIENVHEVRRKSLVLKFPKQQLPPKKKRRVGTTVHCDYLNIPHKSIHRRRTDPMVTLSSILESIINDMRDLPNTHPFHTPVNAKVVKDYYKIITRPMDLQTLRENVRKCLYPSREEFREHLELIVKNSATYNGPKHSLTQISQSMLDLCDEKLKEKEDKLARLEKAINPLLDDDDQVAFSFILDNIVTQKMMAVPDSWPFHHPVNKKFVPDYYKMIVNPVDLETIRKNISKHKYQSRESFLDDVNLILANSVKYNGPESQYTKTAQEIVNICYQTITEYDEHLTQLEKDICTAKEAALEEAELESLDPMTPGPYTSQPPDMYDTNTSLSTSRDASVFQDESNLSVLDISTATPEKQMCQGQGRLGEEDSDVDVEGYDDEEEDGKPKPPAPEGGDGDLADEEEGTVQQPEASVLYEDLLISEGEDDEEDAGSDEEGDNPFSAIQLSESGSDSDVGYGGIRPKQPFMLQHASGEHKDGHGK
T4 sequence (P49760 whole entry): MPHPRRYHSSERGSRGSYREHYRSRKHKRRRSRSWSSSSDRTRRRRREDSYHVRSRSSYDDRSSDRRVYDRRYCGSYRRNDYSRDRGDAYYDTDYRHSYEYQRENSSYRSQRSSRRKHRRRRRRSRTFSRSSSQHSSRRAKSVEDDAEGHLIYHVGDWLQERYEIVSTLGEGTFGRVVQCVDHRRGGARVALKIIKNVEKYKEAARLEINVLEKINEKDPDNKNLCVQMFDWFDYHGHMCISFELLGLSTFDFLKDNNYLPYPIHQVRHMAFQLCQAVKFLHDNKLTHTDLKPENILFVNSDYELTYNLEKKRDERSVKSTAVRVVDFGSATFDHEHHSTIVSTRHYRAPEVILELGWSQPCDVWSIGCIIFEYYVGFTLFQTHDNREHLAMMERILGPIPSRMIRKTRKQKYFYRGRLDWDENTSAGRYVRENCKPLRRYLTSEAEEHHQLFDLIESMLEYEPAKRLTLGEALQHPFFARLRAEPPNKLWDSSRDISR
T5 sequence (Q5MAI5 whole entry): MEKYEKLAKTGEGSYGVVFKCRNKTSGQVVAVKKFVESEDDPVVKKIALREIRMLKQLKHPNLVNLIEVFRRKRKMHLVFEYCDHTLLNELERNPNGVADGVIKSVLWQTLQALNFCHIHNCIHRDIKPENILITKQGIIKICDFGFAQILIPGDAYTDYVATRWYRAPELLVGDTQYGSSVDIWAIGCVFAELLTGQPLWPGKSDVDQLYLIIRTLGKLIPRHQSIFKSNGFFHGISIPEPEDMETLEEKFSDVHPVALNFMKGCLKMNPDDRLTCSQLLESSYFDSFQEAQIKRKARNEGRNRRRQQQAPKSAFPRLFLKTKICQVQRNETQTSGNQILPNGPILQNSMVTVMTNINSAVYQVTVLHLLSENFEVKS

For the molecule `Cn1cc(-c2ccc3scc(-c4ccncc4)c3n2)nn1` [Preparative Example 93, 5-(1-methyl-1H-1,2,3-triazol-4-yl)-3-(pyridin-4-yl)thieno[3,2-b]pyridine], the 50% inhibitory concentration (IC50) at TAF1L(h) was in the range of 0.5 to 3 µM; on CDKL3(h), 3 to 10 µM; on TRB2(h), 0.5 to 3 µM; on CLK2 (h) it was 3 to 10 µM; on CDKL4(h), 3 to 10 µM.
Take `Cn1cc(-c2ccc3scc(Nc4ccccc4)c3n2)cn1` [Preparative Example 76, 5-(1-methyl-1H-pyrazol-4-yl)-N-phenylthieno[3,2-b]pyridin-3-amine]: the IC50 on TAF1L(h) lay within 0.02 to 0.099 µM; at CDKL3(h), 0.02 to 0.099 µM; on TRB2(h), 0.1 to 0.499 µM; at CLK2 (h) it was 0.5 to 3 µM; on CDKL4(h) it was 0.02 to 0.099 µM.
`Cn1cc(-c2ccc3scc(C(O)c4ccccc4)c3n2)cn1` (stereo not drawn) [Preparative Example 74]: the IC50 on TAF1L(h) fell in the range of 0.1 to 0.499 µM; at CDKL3(h), 0.1 to 0.499 µM; at TRB2(h), 0.5 to 3 µM; on CLK2 (h), 0.5 to 3 µM; at CDKL4(h), 0.1 to 0.499 µM.
Turning to `Cn1cc(-c2ccc3scc(-c4cccnc4)c3n2)cn1` [Preparative Example 11, 5-(1-methyl-1H-pyrazol-4-yl)-3-(pyridin-3-yl)thieno[3,2-b]pyridine], the IC50 at TAF1L(h) was in the range of 0.5 to 3 µM; on CDKL3(h) it was 0.1 to 0.499 µM; at TRB2(h), 0.5 to 3 µM; at CLK2 (h) it was 3 to 10 µM; at CDKL4(h), 0.5 to 3 µM.
For the molecule `Cn1cc(-c2ccc3scc(-c4ccnc(F)c4)c3n2)cn1` [Preparative Example 22, 3-(2-fluoropyridin-4-yl)-5-(1-methyl-1H-pyrazol-4-yl)thieno[3,2-b]pyridine], the IC50 at TAF1L(h) lay within 0.1 to 0.499 µM; at CDKL3(h) it was 0.1 to 0.499 µM; at TRB2(h), 0.1 to 0.499 µM; on CLK2 (h), 3 to 10 µM; at CDKL4(h), 0.1 to 0.499 µM.
As to `Cn1cc(-c2ccc3scc(-c4ccncc4F)c3n2)cn1` [Preparative Example 36, 3-(3-fluoropyridin-4-yl)-5-(1-methyl-1H-pyrazol-4-yl)thieno[3,2-b]pyridine], the concentration for half-maximal inhibition (IC50) was 0.1 to 0.499 µM at TAF1L(h); 0.1 to 0.499 µM at CDKL3(h); 0.1 to 0.499 µM on TRB2(h); 0.5 to 3 µM at CLK2 (h); 0.1 to 0.499 µM at CDKL4(h).
Turning to `CC(C)n1cc(-c2ccc3scc(-c4ccncc4)c3n2)cn1` [Preparative Example 79, 5-(1-isopropyl-1H-pyrazol-4-yl)-3-(pyridin-4-yl)thieno[3,2-b]pyridine], the IC50 on TAF1L(h) was in the range of 3 to 10 µM; on CDKL3(h) it was 3 to 10 µM; on TRB2(h), 0.5 to 3 µM; at CLK2 (h) it was 3 to 10 µM; at CDKL4(h), 3 to 10 µM.
`Cn1cc(-c2ccc3scc(-c4ccncc4)c3n2)c(NC(=O)OC(C)(C)C)n1` [Preparative Example 83, tert-butyl(1-methyl-4-(3-(pyridin-4-yl)thieno[3,2-b]pyridin-5-yl)-1H-pyrazol-3-yl)carbamate]: the IC50 on TAF1L(h) was in the range of 0.5 to 3 µM; on CDKL3(h), 0.5 to 3 µM; on TRB2(h) it was 0.5 to 3 µM; on CLK2 (h), 3 to 10 µM; on CDKL4(h), 0.5 to 3 µM.
`Cn1cc(-c2ccc3scc(-c4ccncc4)c3n2)c(N)n1` [Preparative Example 84, 1-methyl-4-(3-(pyridin-4-yl)thieno[3,2-b]pyridin-5-yl)-1H-pyrazol-3-amine]: the half-inhibitory concentration (IC50) at TAF1L(h) fell in the range of 0.5 to 3 µM; at CDKL3(h) it was 0.5 to 3 µM; on TRB2(h) it was 0.5 to 3 µM; on CLK2 (h) it was 3 to 10 µM; at CDKL4(h) it was 0.5 to 3 µM.
